# Measured values taken from patent publication US8680012B2, “4-phenyl-pyrane-3,5-diones,4-phenyl-thiopyrane-3,6-diones and cyclohexanetriones as novel herbicides” (Syngenta Crop Protection LLC, priority 2006, dated 2014).
# Tests used:
# Format in all cases: in vivo
# [1] = system: Alopecurus myosuroides (ALOMY); experiment: Example B pre-emergence herbicidal activity, glasshouse pot test; conditions: 312 h, evaluated after 13 days, read-out: Pre-emergence activity ALOMY (100=total damage to plant; 0=no damage to plant); for pest or weed control at 1000 g/ha: rate 1000 g/ha; for pest or weed control at 250 g/ha: rate 250 g/ha
# Procedure, shortened: (§1)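 Pots, standard soil; spray at day 1 (pre) or day 8 (post); a.i. formulated in acetone/water 50:50 + 0.5% Tween 20; 24/16 °C, 14 h light, 65% RH, watered twice daily; visual rating at 13 d (0 = no damage, 100 = total damage).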
# [2] = system: Amaranthus retroflexus (AMARE); experiment: as above; conditions: 312 h, evaluated after 13 days, read-out: Pre-emergence activity AMARE (100=total damage to plant; 0=no damage to plant); for pest or weed control at 1000 g/ha: rate 1000 g/ha; for pest or weed control at 250 g/ha: rate 250 g/ha
# Procedure, shortened: as §1
# Avena fatua (AVEFA) [3] = experiment: as above; conditions: 312 h, evaluated after 13 days, read-out: Pre-emergence activity AVEFA (100=total damage to plant; 0=no damage to plant); for pest or weed control at 1000 g/ha: rate 1000 g/ha; for pest or weed control at 250 g/ha: rate 250 g/ha
# Procedure, shortened: as §1
# [4] = system: Echinochloa crus-galli (ECHCG); experiment: as above; conditions: 312 h, evaluated after 13 days, read-out: Pre-emergence activity ECHCG (100=total damage to plant; 0=no damage to plant); for pest or weed control at 1000 g/ha: rate 1000 g/ha; for pest or weed control at 250 g/ha: rate 250 g/ha
# Procedure, shortened: as §1
# Setaria faberi (SETFA) [5] = experiment: as above; conditions: 312 h, evaluated after 13 days, read-out: Pre-emergence activity SETFA (100=total damage to plant; 0=no damage to plant); for pest or weed control at 1000 g/ha: rate 1000 g/ha; for pest or weed control at 250 g/ha: rate 250 g/ha
# Procedure, shortened: as §1
# Solanum nigrum (SOLNI) [6] = experiment: as above; conditions: 312 h, evaluated after 13 days, read-out: Pre-emergence activity SOLNI (100=total damage to plant; 0=no damage to plant); for pest or weed control at 1000 g/ha: rate 1000 g/ha; for pest or weed control at 250 g/ha: rate 250 g/ha
# Procedure, shortened: as §1
# [7] = system: Alopecurus myosuroides (ALOMY); experiment: Example B post-emergence herbicidal activity, glasshouse pot test; conditions: 312 h, evaluated after 13 days, read-out: Post-emergence activity ALOMY (100=total damage to plant; 0=no damage to plant); for pest or weed control at 1000 g/ha: rate 1000 g/ha; for pest or weed control at 250 g/ha: rate 250 g/ha
# Procedure, shortened: as §1
# [8] = system: Amaranthus retroflexus (AMARE); experiment: as above; conditions: 312 h, evaluated after 13 days, read-out: Post-emergence activity AMARE (100=total damage to plant; 0=no damage to plant); for pest or weed control at 1000 g/ha: rate 1000 g/ha; for pest or weed control at 250 g/ha: rate 250 g/ha
# Procedure, shortened: as §1
# Avena fatua (AVEFA) [9] = experiment: as above; conditions: 312 h, evaluated after 13 days, read-out: Post-emergence activity AVEFA (100=total damage to plant; 0=no damage to plant); for pest or weed control at 1000 g/ha: rate 1000 g/ha; for pest or weed control at 250 g/ha: rate 250 g/ha
# Procedure, shortened: as §1
# [10] = system: Echinochloa crus-galli (ECHCG); experiment: as above; conditions: 312 h, evaluated after 13 days, read-out: Post-emergence activity ECHCG (100=total damage to plant; 0=no damage to plant); for pest or weed control at 1000 g/ha: rate 1000 g/ha; for pest or weed control at 250 g/ha: rate 250 g/ha
# Procedure, shortened: as §1
# Setaria faberi (SETFA) [11] = experiment: as above; conditions: 312 h, evaluated after 13 days, read-out: Post-emergence activity SETFA (100=total damage to plant; 0=no damage to plant); for pest or weed control at 1000 g/ha: rate 1000 g/ha; for pest or weed control at 250 g/ha: rate 250 g/ha
# Procedure, shortened: as §1
# Solanum nigrum (SOLNI) [12] = experiment: as above; conditions: 312 h, evaluated after 13 days, read-out: Post-emergence activity SOLNI (100=total damage to plant; 0=no damage to plant); for pest or weed control at 1000 g/ha: rate 1000 g/ha; for pest or weed control at 250 g/ha: rate 250 g/ha
# Procedure, shortened: as §1
SMILES,pest or weed control at 1000 g/ha [1] [%],pest or weed control at 1000 g/ha [2] [%],pest or weed control at 1000 g/ha (Avena fatua (AVEFA) [3]) [%],pest or weed control at 1000 g/ha [4] [%],pest or weed control at 1000 g/ha (Setaria faberi (SETFA) [5]) [%],pest or weed control at 1000 g/ha (Solanum nigrum (SOLNI) [6]) [%],pest or weed control at 1000 g/ha [7] [%],pest or weed control at 1000 g/ha [8] [%],pest or weed control at 1000 g/ha (Avena fatua (AVEFA) [9]) [%],pest or weed control at 1000 g/ha [10] [%],pest or weed control at 1000 g/ha (Setaria faberi (SETFA) [11]) [%],pest or weed control at 1000 g/ha (Solanum nigrum (SOLNI) [12]) [%],pest or weed control at 250 g/ha [1] [%],pest or weed control at 250 g/ha [2] [%],pest or weed control at 250 g/ha (Avena fatua (AVEFA) [3]) [%],pest or weed control at 250 g/ha [4] [%],pest or weed control at 250 g/ha (Setaria faberi (SETFA) [5]) [%],pest or weed control at 250 g/ha (Solanum nigrum (SOLNI) [6]) [%],pest or weed control at 250 g/ha [7] [%],pest or weed control at 250 g/ha [8] [%],also measured
Cc1ccc(-c2ccc(C#N)cc2)cc1C1=C(O)C(C)(C)OC(C)(C)C1=O [Compound A-20],90,0,60,100,100,40,90,20,90,100,100,80,–,–,–,–,–,–,–,–,–
CCc1ccc(-c2ccc(Cl)cc2OC)cc1C1=C(O)C(C)(C)C(=O)C(C)(C)C1=O [Compound B-25],–,–,–,–,–,–,–,–,–,–,–,–,0,0,0,0,0,0,20,0,pest or weed control at 250 g/ha (Avena fatua (AVEFA) [9]): 0%; pest or weed control at 250 g/ha [10]: 70%; pest or weed control at 250 g/ha (Setaria faberi (SETFA) [11]): 20%; pest or weed control at 250 g/ha (Solanum nigrum (SOLNI) [12]): 0%
CCc1ccc(-c2ccc(Cl)nc2C)cc1C1=C(O)C(C)(C)C(=O)C(C)(C)C1=O [Compound B-30],–,–,–,–,–,–,–,–,–,–,–,–,0,0,0,0,0,0,20,0,pest or weed control at 250 g/ha (Avena fatua (AVEFA) [9]): 0%; pest or weed control at 250 g/ha [10]: 70%; pest or weed control at 250 g/ha (Setaria faberi (SETFA) [11]): 70%; pest or weed control at 250 g/ha (Solanum nigrum (SOLNI) [12]): 10%
Cc1ccc(-c2ccc(Cl)nc2Cl)cc1C1=C(O)C(C)(C)OC(C)(C)C1=O [Compound A-58],80,20,60,100,100,20,90,70,90,100,90,30,–,–,–,–,–,–,–,–,–
CCc1ccc(-c2ccc(Cl)cc2)cc1C1=C(OC(=O)C2CC2)C(C)(C)OC(C)(C)C1=O [Compound D-10],50,0,0,100,100,0,90,20,20,100,100,0,–,–,–,–,–,–,–,–,–
Cc1ccc(-c2ccc(Cl)cc2Cl)cc1C1=C(O)C(C)(C)C(=O)C(C)(C)C1=O [Compound B-7],0,0,0,50,60,20,20,70,20,60,70,70,–,–,–,–,–,–,–,–,–
CCc1ccc(-c2ccc(Cl)c(C#N)c2)cc1C1=C(O)C(C)(C)C(=O)C(C)(C)C1=O [Compound B-27],–,–,–,–,–,–,–,–,–,–,–,–,0,0,0,0,0,0,70,0,pest or weed control at 250 g/ha (Avena fatua (AVEFA) [9]): 0%; pest or weed control at 250 g/ha [10]: 80%; pest or weed control at 250 g/ha (Setaria faberi (SETFA) [11]): 60%; pest or weed control at 250 g/ha (Solanum nigrum (SOLNI) [12]): 0%
CCc1ccc(-c2ccc(Cl)cc2)cc1C1=C(OC(=O)OC(C)C)C(C)(C)OC(C)(C)C1=O [Compound D-17],20,0,0,80,90,0,60,10,20,100,100,0,–,–,–,–,–,–,–,–,–
CCc1ccc(-c2ccc(Cl)nc2)cc1C1=C(O)C(C)(C)C(=O)C(C)(C)C1=O [Compound B-9],–,–,–,–,–,–,–,–,–,–,–,–,0,0,0,0,0,0,40,40,pest or weed control at 250 g/ha (Avena fatua (AVEFA) [9]): 0%; pest or weed control at 250 g/ha [10]: 80%; pest or weed control at 250 g/ha (Setaria faberi (SETFA) [11]): 70%; pest or weed control at 250 g/ha (Solanum nigrum (SOLNI) [12]): 20%
"CCc1ccc(-c2ccc(Cl)cc2)cc1C1=C(O)[C@@]2(C)CC[C@H](O2)C1=O (single isomer, unassigned) [Compound A-29]",90,0,80,100,100,0,100,40,100,100,100,60,–,–,–,–,–,–,–,–,–
CCC(=O)OC1=C(c2cc(-c3ccc(Cl)cc3)ccc2CC)C(=O)C(C)(C)OC1(C)C [Compound D-8],40,0,0,90,90,0,60,0,10,100,100,0,–,–,–,–,–,–,–,–,–
CCc1ccc(-c2ccc(Cl)c(C(F)(F)F)c2)cc1C1=C(O)C(C)(C)C(=O)C(C)(C)C1=O [Compound B-10],–,–,–,–,–,–,–,–,–,–,–,–,0,0,0,30,50,20,40,40,pest or weed control at 250 g/ha (Avena fatua (AVEFA) [9]): 20%; pest or weed control at 250 g/ha [10]: 90%; pest or weed control at 250 g/ha (Setaria faberi (SETFA) [11]): 80%; pest or weed control at 250 g/ha (Solanum nigrum (SOLNI) [12]): 0%
